Results taken from article PMC9681820, “A PDE10A inhibitor CPL500036 is a novel agent modulating striatal function devoid of most neuroleptic side-effects” (Frontiers in Pharmacology, 2022).

What was measured:
psychosis animal models = system: psychosis animal models; set-up: method as in manuscript in preparation; settings: ref manuscript in preparation; cited from earlier work
other PDE family members = system: other PDE family members; set-up: method as in Moszczyński-Pętkowski et al., 2018; settings: at a concentration of 100x IC50; ref Moszczyński-Pętkowski et al., 2018; cited from earlier work
[1] = molecular target: T1, muscarinic acetylcholine receptor type 2 (Homo sapiens, UniProt P08172); assay: SafetyScreen44 radioligand binding (antagonistic radioligand assay); settings: read-out: % Inh (% inhibition of control specific binding)
T1 construct: purchased Eurofins Cerep (SafetyScreen44)
Protocol: (§1) The SafetyScreen44® assay was carried out by Eurofins (Poitiers, France) according to the service-provider’s protocol. CPL500036 (1 µM) was tested against a panel of […] potential off-targets proteins, including G protein-coupled receptors (GPCRs), transporters, ion channels, nuclear receptors kinases and other non-kinase enzymes, by use of a set of the binding assays.
(§2) Binding of CPL500036 was calculated as the percent binding inhibition of a radioactively labeled ligand specific for each target. Enzyme inhibition of CPL500036 was calculated as the percent inhibition of the activity of the control enzyme. “No interaction” was denoted if inhibition ≤ 25% of specific binding of the control. Determination of muscarinic acetylcholine receptor (M2) activity induced by CPL500036 (antagonism and agonism) was undertaken in human recombinant CHO cells by measurement of the intracellular cAMP level according to the service-provider’s protocol. IC50 (concentration causing a half-maximal inhibition of specific binding of the control) or EC50 (concentration causing a half-maximal response of specific binding of the control) and the Hill coefficient were determined by non-linear regression analysis of the competition curves generated with mean replicate values using Hill-equation curve fitting with software developed at Cerep (Celle-Lévescault, France).

pKa (Figure 1) = type: physicochemical; settings: printed in the picture of Figure 1, no method given
hERG = hERG (Homo sapiens, UniProt Q12809); assay: hERG tail current, manual patch-clamp in hERG-HEK-293 transfected cells; type: cell-based
Chain of hERG (Q12809 whole entry): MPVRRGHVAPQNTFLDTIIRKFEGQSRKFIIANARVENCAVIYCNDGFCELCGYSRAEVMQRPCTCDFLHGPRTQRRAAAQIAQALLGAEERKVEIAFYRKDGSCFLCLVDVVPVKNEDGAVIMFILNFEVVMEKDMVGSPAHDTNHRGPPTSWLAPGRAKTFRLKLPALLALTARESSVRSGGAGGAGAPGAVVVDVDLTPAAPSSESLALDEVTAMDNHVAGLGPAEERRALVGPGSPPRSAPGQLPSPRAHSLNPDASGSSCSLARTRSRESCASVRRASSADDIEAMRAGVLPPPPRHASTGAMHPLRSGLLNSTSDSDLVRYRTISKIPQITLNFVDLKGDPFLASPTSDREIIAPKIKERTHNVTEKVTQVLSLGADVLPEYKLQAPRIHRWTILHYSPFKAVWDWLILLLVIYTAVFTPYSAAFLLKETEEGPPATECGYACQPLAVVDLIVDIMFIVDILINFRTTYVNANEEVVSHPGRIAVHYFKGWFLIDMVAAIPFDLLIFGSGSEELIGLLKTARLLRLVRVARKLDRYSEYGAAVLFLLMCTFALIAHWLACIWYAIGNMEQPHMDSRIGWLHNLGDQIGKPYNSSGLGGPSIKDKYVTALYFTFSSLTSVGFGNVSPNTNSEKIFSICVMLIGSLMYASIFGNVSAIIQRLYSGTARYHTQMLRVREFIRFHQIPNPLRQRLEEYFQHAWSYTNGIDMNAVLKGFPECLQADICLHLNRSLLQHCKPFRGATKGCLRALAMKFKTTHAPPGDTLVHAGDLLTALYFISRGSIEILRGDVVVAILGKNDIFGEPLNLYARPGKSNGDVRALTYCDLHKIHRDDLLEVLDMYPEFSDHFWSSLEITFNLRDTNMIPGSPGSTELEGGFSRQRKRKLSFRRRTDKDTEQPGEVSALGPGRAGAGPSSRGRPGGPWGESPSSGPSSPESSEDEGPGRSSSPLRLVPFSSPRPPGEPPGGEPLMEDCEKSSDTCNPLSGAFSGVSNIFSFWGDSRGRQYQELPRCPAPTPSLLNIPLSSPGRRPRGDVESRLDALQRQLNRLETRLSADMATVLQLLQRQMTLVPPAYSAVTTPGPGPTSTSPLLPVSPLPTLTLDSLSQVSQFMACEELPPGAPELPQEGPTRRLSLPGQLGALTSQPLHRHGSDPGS
Protocol: The dose-dependent effect of CPL500036 (10^–7 M–10^–5 M) on hERG current was conducted at Centre De Recherches Biologiques (CERB; Baugy, France) using the whole hERG-HEK-293 transfected cell system and manual patch-clamp method. […] Cells were clamped to −80 mV, depolarized to 0 mV for 5 s (to allow activation of hERG current) and repolarized to −50 mV for 5 s (to allow hERG tail current to deactivate). This experimental procedure was repeated at a frequency of 0.06 Hz. Currents were filtered at 1 kHz and acquired at a frequency of 2 kHz. The amplitude of hERG tail current was measured during the repolarizing pulse from 0 mV to −50 mV. […] Currents were measured before and after exposure to CPL500036.

[2] = molecular target: T2, muscarinic acetylcholine receptor type 1 (Homo sapiens, UniProt P11229); assay: SafetyScreen44 radioligand binding; settings: read-out: % Inh (% inhibition of control specific binding)
T2 construct: purchased Eurofins Cerep (SafetyScreen44)
T2 sequence (P11229 whole entry): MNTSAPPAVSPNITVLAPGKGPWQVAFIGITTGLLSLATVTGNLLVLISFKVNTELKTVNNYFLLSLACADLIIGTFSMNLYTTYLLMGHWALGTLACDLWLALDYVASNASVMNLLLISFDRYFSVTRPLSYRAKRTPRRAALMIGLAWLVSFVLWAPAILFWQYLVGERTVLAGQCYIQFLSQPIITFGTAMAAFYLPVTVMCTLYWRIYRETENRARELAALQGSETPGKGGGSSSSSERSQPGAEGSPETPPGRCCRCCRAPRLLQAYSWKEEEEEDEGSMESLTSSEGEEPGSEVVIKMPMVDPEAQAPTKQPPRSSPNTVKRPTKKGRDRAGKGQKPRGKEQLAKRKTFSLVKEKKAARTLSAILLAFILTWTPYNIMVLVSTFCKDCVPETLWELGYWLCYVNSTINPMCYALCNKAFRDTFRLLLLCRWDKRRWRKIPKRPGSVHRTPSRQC
Protocol: as §1, §2

serotonin receptor 1B = molecular target: T3, serotonin receptor 1B (Rattus norvegicus, UniProt P28564); assay: SafetyScreen44 radioligand binding; settings: read-out: % Inh (% inhibition of control specific binding)
T3 construct: purchased Eurofins Cerep (SafetyScreen44)
Protocol: as §1, §2

5-HT transporter = molecular target: T4, 5-HT transporter (Homo sapiens, UniProt P31645); assay: SafetyScreen44 radioligand binding; settings: read-out: % Inh (% inhibition of control specific binding)
T4 construct: purchased Eurofins Cerep (SafetyScreen44)
Protocol: as §1, §2

[3] = molecular target: T5, beta-2 adrenergic receptor (Homo sapiens, UniProt P07550); assay: SafetyScreen44 radioligand binding; settings: agonist radioligand, read-out: % Inh (% inhibition of control specific binding)
T5 construct: purchased Eurofins Cerep (SafetyScreen44)
Protocol: as §1, §2

[4] = molecular target: T6, histamine receptor type 1 (Homo sapiens, UniProt P35367); assay: SafetyScreen44 radioligand binding; settings: read-out: % Inh (% inhibition of control specific binding)
T6 construct: purchased Eurofins Cerep (SafetyScreen44)
T6 sequence (P35367 whole entry): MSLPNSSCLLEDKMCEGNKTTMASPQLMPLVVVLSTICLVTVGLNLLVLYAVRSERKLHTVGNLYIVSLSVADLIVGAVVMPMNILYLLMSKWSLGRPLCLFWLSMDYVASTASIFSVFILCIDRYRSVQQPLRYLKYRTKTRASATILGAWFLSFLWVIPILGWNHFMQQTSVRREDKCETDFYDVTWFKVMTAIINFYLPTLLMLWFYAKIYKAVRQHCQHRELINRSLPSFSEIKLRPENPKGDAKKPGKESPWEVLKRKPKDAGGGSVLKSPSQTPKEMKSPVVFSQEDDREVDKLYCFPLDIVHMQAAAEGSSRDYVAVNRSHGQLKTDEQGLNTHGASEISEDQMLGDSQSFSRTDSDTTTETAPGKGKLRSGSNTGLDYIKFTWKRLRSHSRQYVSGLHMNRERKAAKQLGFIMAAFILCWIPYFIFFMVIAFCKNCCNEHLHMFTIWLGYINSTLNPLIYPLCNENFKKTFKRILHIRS
Protocol: as §1, §2

serotonin receptor 2A = molecular target: T7, serotonin receptor 2A (Homo sapiens, UniProt P28223); assay: SafetyScreen44 radioligand binding; settings: agonist radioligand, read-out: % Inh (% inhibition of control specific binding)
T7 construct: purchased Eurofins Cerep (SafetyScreen44)
Protocol: as §1, §2

[5] = molecular target: T8, alpha-2A adrenergic receptor (Homo sapiens, UniProt P08913); assay: SafetyScreen44 radioligand binding; settings: read-out: % Inh (% inhibition of control specific binding)
T8 construct: purchased Eurofins Cerep (SafetyScreen44)
Protocol: as §1, §2

dopamine transporter = molecular target: T9, dopamine transporter (Homo sapiens, UniProt Q01959); assay: SafetyScreen44 radioligand binding; settings: read-out: % Inh (% inhibition of control specific binding)
T9 construct: purchased Eurofins Cerep (SafetyScreen44)
Protocol: as §1, §2

glucocorticoid receptor = molecular target: T10, glucocorticoid receptor (Homo sapiens, UniProt P04150); assay: SafetyScreen44 radioligand binding; settings: agonist radioligand, read-out: % Inh (% inhibition of control specific binding)
T10 construct: purchased Eurofins Cerep (SafetyScreen44)
Protocol: as §1, §2

Monoamine oxidase A = molecular target: T11, Monoamine oxidase A (Rattus norvegicus, UniProt P21396); assay: SafetyScreen44 radioligand binding; settings: read-out: % Inh (% inhibition of control specific binding)
T11 construct: purchased Eurofins Cerep (SafetyScreen44)
Protocol: as §1, §2

[6] = molecular target: T12, cannabinoid receptor type 1 (Homo sapiens, UniProt P21554); assay: SafetyScreen44 radioligand binding; settings: agonist radioligand, read-out: % Inh (% inhibition of control specific binding)
T12 construct: purchased Eurofins Cerep (SafetyScreen44)
T12 sequence (P21554 whole entry): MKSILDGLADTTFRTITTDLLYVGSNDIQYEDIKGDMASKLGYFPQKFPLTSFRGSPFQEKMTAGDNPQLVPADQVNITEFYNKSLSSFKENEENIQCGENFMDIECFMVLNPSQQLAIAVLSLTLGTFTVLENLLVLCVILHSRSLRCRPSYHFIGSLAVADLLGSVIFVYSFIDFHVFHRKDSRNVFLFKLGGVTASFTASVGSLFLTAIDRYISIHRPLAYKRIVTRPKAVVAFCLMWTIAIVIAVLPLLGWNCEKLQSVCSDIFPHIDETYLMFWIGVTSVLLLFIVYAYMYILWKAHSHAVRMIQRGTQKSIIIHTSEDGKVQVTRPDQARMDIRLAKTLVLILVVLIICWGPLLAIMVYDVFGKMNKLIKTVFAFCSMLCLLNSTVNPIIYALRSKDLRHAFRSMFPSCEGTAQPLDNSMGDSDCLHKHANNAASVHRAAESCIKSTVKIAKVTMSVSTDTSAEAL
Protocol: as §1, §2

κ-type opioid receptor = molecular target: T13, κ-type opioid receptor (Rattus norvegicus, UniProt P34975); assay: SafetyScreen44 radioligand binding; settings: agonist radioligand, read-out: % Inh (% inhibition of control specific binding)
T13 construct: purchased Eurofins Cerep (SafetyScreen44)
Protocol: as §1, §2

[7] = molecular target: T14, alpha-1A adrenergic receptor (Homo sapiens, UniProt P35348); assay: SafetyScreen44 radioligand binding; settings: read-out: % Inh (% inhibition of control specific binding)
T14 construct: purchased Eurofins Cerep (SafetyScreen44)
Protocol: as §1, §2

[8] = molecular target: T15, cannabinoid receptor type 2 (Homo sapiens, UniProt P34972); assay: SafetyScreen44 radioligand binding; settings: agonist radioligand, read-out: % Inh (% inhibition of control specific binding)
T15 construct: purchased Eurofins Cerep (SafetyScreen44)
T15 sequence (P34972 whole entry): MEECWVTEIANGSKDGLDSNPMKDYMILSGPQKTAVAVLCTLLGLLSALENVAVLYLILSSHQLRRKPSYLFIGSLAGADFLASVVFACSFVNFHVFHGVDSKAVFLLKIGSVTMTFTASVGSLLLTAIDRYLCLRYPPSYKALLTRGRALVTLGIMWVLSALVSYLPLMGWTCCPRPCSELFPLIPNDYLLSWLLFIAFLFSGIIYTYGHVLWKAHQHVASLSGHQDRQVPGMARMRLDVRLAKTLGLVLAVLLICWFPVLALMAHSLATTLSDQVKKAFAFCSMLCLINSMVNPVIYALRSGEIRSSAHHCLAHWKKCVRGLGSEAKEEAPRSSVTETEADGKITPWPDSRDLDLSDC
Protocol: as §1, §2

[9] = molecular target: T16, histamine receptor type 2 (Homo sapiens, UniProt P25021); assay: SafetyScreen44 radioligand binding; settings: read-out: % Inh (% inhibition of control specific binding)
T16 construct: purchased Eurofins Cerep (SafetyScreen44)
T16 sequence (P25021 whole entry): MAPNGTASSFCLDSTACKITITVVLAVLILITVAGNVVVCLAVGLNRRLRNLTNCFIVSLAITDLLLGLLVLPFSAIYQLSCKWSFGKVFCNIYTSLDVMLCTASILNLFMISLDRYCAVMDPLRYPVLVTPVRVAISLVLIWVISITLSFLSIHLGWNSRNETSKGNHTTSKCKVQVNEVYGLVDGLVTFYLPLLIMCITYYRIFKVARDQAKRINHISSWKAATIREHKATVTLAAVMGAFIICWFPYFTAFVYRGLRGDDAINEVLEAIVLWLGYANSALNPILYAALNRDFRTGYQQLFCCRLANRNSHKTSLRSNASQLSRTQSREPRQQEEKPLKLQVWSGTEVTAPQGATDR
Protocol: as §1, §2

µ -type opioid receptor = molecular target: T17, µ -type opioid receptor (Homo sapiens, UniProt P35372); assay: SafetyScreen44 radioligand binding; settings: agonist radioligand, read-out: % Inh (% inhibition of control specific binding)
T17 construct: purchased Eurofins Cerep (SafetyScreen44)
Protocol: as §1, §2

[10] = molecular target: T18, cholecystokinin A receptor (Homo sapiens, UniProt P32238); assay: SafetyScreen44 radioligand binding; settings: agonist radioligand, read-out: % Inh (% inhibition of control specific binding)
T18 construct: purchased Eurofins Cerep (SafetyScreen44)
Protocol: as §1, §2

[11] = molecular target: T19, potassium voltage-gated channel subfamily H member 2 (hERG) (Homo sapiens, UniProt Q12809); assay: SafetyScreen44 radioligand binding; settings: read-out: % Inh (% inhibition of control specific binding)
T19 construct: purchased Eurofins Cerep (SafetyScreen44)
T19 sequence (Q12809 whole entry): as the sequence (Q12809 whole entry) above
Protocol: as §1, §2

[12] = molecular target: T20, beta-1 adrenergic receptor (Homo sapiens, UniProt P08588); assay: SafetyScreen44 radioligand binding; settings: agonist radioligand, read-out: % Inh (% inhibition of control specific binding)
T20 construct: purchased Eurofins Cerep (SafetyScreen44)
Protocol: as §1, §2

[13] = molecular target: T21, δ-type opioid receptor ẟ2 (Homo sapiens, UniProt P41143); assay: SafetyScreen44 radioligand binding; settings: agonist radioligand, read-out: % Inh (% inhibition of control specific binding)
T21 construct: purchased Eurofins Cerep (SafetyScreen44)
Protocol: as §1, §2

serotonin receptor 3 = molecular target: T22, serotonin receptor 3 (Homo sapiens, UniProt P46098); assay: SafetyScreen44 radioligand binding; settings: read-out: % Inh (% inhibition of control specific binding)
T22 construct: purchased Eurofins Cerep (SafetyScreen44)
T22 sequence (P46098 24-478): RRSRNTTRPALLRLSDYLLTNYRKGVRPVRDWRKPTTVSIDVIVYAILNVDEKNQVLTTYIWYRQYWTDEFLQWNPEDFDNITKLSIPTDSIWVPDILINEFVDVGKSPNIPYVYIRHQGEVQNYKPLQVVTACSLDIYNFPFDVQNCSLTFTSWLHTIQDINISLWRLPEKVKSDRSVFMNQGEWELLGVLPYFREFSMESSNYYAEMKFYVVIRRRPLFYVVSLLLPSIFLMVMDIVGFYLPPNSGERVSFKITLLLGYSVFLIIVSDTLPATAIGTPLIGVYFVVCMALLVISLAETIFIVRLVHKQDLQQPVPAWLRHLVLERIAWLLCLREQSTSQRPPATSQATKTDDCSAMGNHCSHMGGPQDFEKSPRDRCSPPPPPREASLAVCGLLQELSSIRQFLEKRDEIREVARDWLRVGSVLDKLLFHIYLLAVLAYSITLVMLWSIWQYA
Protocol: as §1, §2

serotonin receptor 2B = molecular target: T23, serotonin receptor 2B (Homo sapiens, UniProt P41595); assay: SafetyScreen44 radioligand binding; settings: agonist radioligand, read-out: % Inh (% inhibition of control specific binding)
T23 construct: purchased Eurofins Cerep (SafetyScreen44)
Protocol: as §1, §2

[14] = system: Salmonella typhimurium TA1537; assay: Ames test; settings: CPL500036 5000µg/plate, n=3
[15] = system: Escherichia coli WP2 uvrA; assay: Ames test; settings: CPL500036 5000µg/plate, n=3
[16] = With metabolic activation (+S9 mix), 2AA 2µg/plate
[17] = Without metabolic activation (-S9 mix), 9AA 50µg/plate
[18] = Without metabolic activation (-S9 mix), MMS 2µg/plate

Cc1ncc(C)n2nc(-c3ccn4cc(-c5ccccc5)nc4n3)nc12 [CPL500036, 7-[5,8-Dimethyl-(1,2,4)triazolo (1,5-a)pyrazin-2-yl]-2-phenylimidazo (1,2-a) pyrimidine]
dose showing therapeutic activity (psychosis animal models): 0.1 mg/kg
inhibition of other PDE family members (other PDE family members): didn’t inhibit other PDE family members
inhibition at 1 µM [1]: -91.2%
pKa (pKa (Figure 1)): 2.41
hERG IC25 relative to the IC50 for PDE10A (hERG): > 3,000 times
IC25, inhibition of hERG tail current (hERG; hERG-HEK-293 transfected cells, manual patch-clamp, mean ± SD, n = 3): 3.2 ± 1.6 µM
inhibition at 1 µM [2]: -19.7%
inhibition at 1 µM (serotonin receptor 1B): -7.3%
inhibition at 1 µM (5-HT transporter): -9.5%
inhibition at 1 µM [3]: 8.2%
inhibition at 1 µM [4]: -14.6%
inhibition at 1 µM (serotonin receptor 2A): -8.6%
inhibition at 1 µM [5]: 0.4%
inhibition at 1 µM (dopamine transporter): -6.9%
inhibition at 1 µM (glucocorticoid receptor): -3.2%
inhibition at 1 µM (Monoamine oxidase A): 1%
inhibition at 1 µM [6]: 8.8%
inhibition at 1 µM (κ-type opioid receptor): 7.7%
inhibition at 1 µM [7]: 1.8%
inhibition at 1 µM [8]: -14.6%
inhibition at 1 µM [9]: 1.8%
inhibition at 1 µM (µ -type opioid receptor): -1.1%
inhibition at 1 µM [10]: -8.2%
inhibition at 1 µM [11]: -19.6%
inhibition at 1 µM [12]: 1.1%
inhibition at 1 µM [13]: 6.9%
inhibition at 1 µM (serotonin receptor 3): -5.7%
inhibition at 1 µM (serotonin receptor 2B): 10.6%
Mutation rate [14, 16]: 0.69
Revertants Mean±SD [14, 16]: 6.0±5.20
Mutation rate [14, 17]: 0.71
Revertants Mean±SD [14, 17]: 4.0±4.36
Mutation rate [15, 16]: 1.76
Revertants Mean±SD [15, 16]: 42.3±2.89
Mutation rate [15, 18]: 1.12
Revertants Mean±SD [15, 18]: 22.3±2.08
